Among the data in patent US12522602B2, “Derivatives having 2,3-dihydro-1H-indene or 2,3-dihydrobenzofuran moiety or pharmaceutically acceptable salt thereof and pharmaceutical compositions comprising the same” (YUHAN CORPORATION, priority 2019, dated 2026) are IC50 values, retold here.

Broadly, the IC50 is the concentration needed to halve the response being measured. Lower therefore signals inhibition by little substance.

This experiment concerns GM1 production in Jurkat cells. Briefly: cells. The class given is cell-based. To be noted: Homo sapiens, Jurkat, 72 h.
`CCCCc1ccc(-c2ccc3c(c2)CC(C)(C)C3NC(=O)O[C@@H]2CN3CCC2CC3)cc1` (stereo partly drawn) [Example 164, (S)-quinuclidin-3-yl (5-(4-butylphenyl)-2,2-dimethyl-2,3-dihydro-1H-inden-1-yl)carbamate] showed a half-inhibitory concentration (IC50) of 6.5 nM.
`COc1cccc(-c2ccc3c(c2)CC(C)(C)C3NC(=O)O[C@@H]2CN3CCC2CC3)c1OC` (stereo partly drawn) [Example 165, (S)-quinuclidin-3-yl (5-(2,3-dimethoxyphenyl)-2,2-dimethyl-2,3-dihydro-1H-inden-1-yl)carbamate] yielded an IC50 of 15.6 nM. Against the preceding compound, the IC50 is about 2.4-fold higher.
The result for `COc1ccc(-c2ccc3c(c2)CC(C)(C)C3NC(=O)O[C@@H]2CN3CCC2CC3)c(OC)c1` (stereo partly drawn) [Example 166, (S)-quinuclidin-3-yl (5-(2,4-dimethoxyphenyl)-2,2-dimethyl-2,3-dihydro-1H-inden-1-yl)carbamate] reads 26.3 nM.
The result for `COc1ccc(OC)c(-c2ccc3c(c2)CC(C)(C)C3NC(=O)O[C@@H]2CN3CCC2CC3)c1` (stereo partly drawn) [Example 167, (S)-quinuclidin-3-yl (5-(2,5-dimethoxyphenyl)-2,2-dimethyl-2,3-dihydro-1H-inden-1-yl)carbamate] reads 3.8 nM; that for `COc1cccc(OC)c1-c1ccc2c(c1)CC(C)(C)C2NC(=O)O[C@@H]1CN2CCC1CC2` (stereo partly drawn) [Example 168, (S)-quinuclidin-3-yl (5-(2,6-dimethoxyphenyl)-2,2-dimethyl-2,3-dihydro-1H-inden-1-yl)carbamate], 9.6 nM.
Compound `COc1cc(OC)cc(-c2ccc3c(c2)CC(C)(C)C3NC(=O)O[C@@H]2CN3CCC2CC3)c1` (stereo partly drawn) [Example 169, (S)-quinuclidin-3-yl (5-(3,5-dimethoxyphenyl)-2,2-dimethyl-2,3-dihydro-1H-inden-1-yl)carbamate] returned a half-maximal inhibitory concentration (IC50) of 9.8 nM. This IC50 and that of the compound before are within 1.5-fold of each other.
Under `CCOc1ccc(-c2ccc3c(c2)CC(C)(C)C3NC(=O)O[C@@H]2CN3CCC2CC3)cc1C(F)(F)F` (stereo partly drawn) [Example 170, (S)-quinuclidin-3-yl (5-(4-ethoxy-3-(trifluoromethyl)phenyl)-2,2-dimethyl-2,3-dihydro-1H-inden-1-yl)carbamate] stands 13 nM; under `COc1cc(F)c(-c2ccc3c(c2)CC(C)(C)C3NC(=O)O[C@@H]2CN3CCC2CC3)cc1F` (stereo partly drawn) [Example 171, (S)-quinuclidin-3-yl (5-(2,5-difluoro-4-methoxyphenyl)-2,2-dimethyl-2,3-dihydro-1H-inden-1-yl)carbamate], 17 nM.
`CC(C)Oc1ccc(F)c(-c2ccc3c(c2)CC(C)(C)C3NC(=O)O[C@@H]2CN3CCC2CC3)c1` (stereo partly drawn) [Example 172, (S)-quinuclidin-3-yl (5-(2-fluoro-5-isopropoxyphenyl)-2,2-dimethyl-2,3-dihydro-1H-inden-1-yl)carbamate]: it took 48.5 nM to reach half-maximal inhibition (IC50).
The result for `CCCOc1c(C)cc(-c2ccc3c(c2)CC(C)(C)C3NC(=O)O[C@@H]2CN3CCC2CC3)cc1C` (stereo partly drawn) [Example 173, (S)-quinuclidin-3-yl (5-(3,5-dimethyl-4-propoxyphenyl)-2,2-dimethyl-2,3-dihydro-1H-inden-1-yl)carbamate] reads 34.8 nM; that for `CCOc1c(C)cc(-c2ccc3c(c2)CC(C)(C)C3NC(=O)O[C@@H]2CN3CCC2CC3)cc1C` (stereo partly drawn) [Example 174, (S)-quinuclidin-3-yl (5-(4-ethoxy-3,5-dimethylphenyl)-2,2-dimethyl-2,3-dihydro-1H-inden-1-yl)carbamate], 40.2 nM; that for `CCc1ccccc1-c1ccc2c(c1)CC(C)(C)C2NC(=O)O[C@@H]1CN2CCC1CC2` (stereo partly drawn) [Example 175, (S)-quinuclidin-3-yl (5-(2-ethylphenyl)-2,2-dimethyl-2,3-dihydro-1H-inden-1-yl)carbamate], 42.8 nM.
Under `COc1ccccc1-c1ccc2c(c1)CC(C)(C)C2NC(=O)O[C@@H]1CN2CCC1CC2` (stereo partly drawn) [Example 176, (S)-quinuclidin-3-yl (5-(2-methoxyphenyl)-2,2-dimethyl-2,3-dihydro-1H-inden-1-yl)carbamate] stands 27.6 nM; under `CCOc1ccccc1-c1ccc2c(c1)CC(C)(C)C2NC(=O)O[C@@H]1CN2CCC1CC2` (stereo partly drawn) [Example 177, (S)-quinuclidin-3-yl (5-(2-ethoxyphenyl)-2,2-dimethyl-2,3-dihydro-1H-inden-1-yl)carbamate], 22.9 nM.
Under `CC1(C)Cc2cc(-c3cc(OC(F)(F)F)ccc3Cl)ccc2C1NC(=O)O[C@@H]1CN2CCC1CC2` (stereo partly drawn) [Example 178, (S)-quinuclidin-3-yl (5-(2-chloro-5-(trifluoromethoxy)phenyl)-2,2-dimethyl-2,3-dihydro-1H-inden-1-yl)carbamate] stands 26.9 nM; under `COc1cc(F)ccc1-c1ccc2c(c1)CC(C)(C)C2NC(=O)O[C@@H]1CN2CCC1CC2` (stereo partly drawn) [Example 179, (S)-quinuclidin-3-yl (5-(4-fluoro-2-methoxyphenyl)-2,2-dimethyl-2,3-dihydro-1H-inden-1-yl)carbamate], 41 nM; under `COc1ccc(-c2ccc3c(c2)CC(C)(C)C3NC(=O)O[C@@H]2CN3CCC2CC3)c(C)c1` (stereo partly drawn) [Example 180, (S)-quinuclidin-3-yl (5-(4-methoxy-2-methylphenyl)-2,2-dimethyl-2,3-dihydro-1H-inden-1-yl)carbamate], 28.1 nM.
In turn, `CC(C)(C)OCc1ccc(-c2ccc3c(c2)CC(C)(C)C3NC(=O)O[C@@H]2CN3CCC2CC3)cc1` (stereo partly drawn) [Example 181, (S)-quinuclidin-3-yl (5-(4-(tert-butoxymethyl)phenyl)-2,2-dimethyl-2,3-dihydro-1H-inden-1-yl)carbamate] had a concentration for half-maximal inhibition (IC50) of 5.5 nM.
Under `CC1(C)Cc2cc(-c3cccc(C(F)(F)F)c3Cl)ccc2C1NC(=O)O[C@@H]1CN2CCC1CC2` (stereo partly drawn) [Example 182, (S)-quinuclidin-3-yl (5-(2-chloro-3-(trifluoromethyl)phenyl)-2,2-dimethyl-2,3-dihydro-1H-inden-1-yl)carbamate] stands 20.9 nM; under `CC1(C)Cc2cc(-c3ccc(C(F)(F)F)cc3Cl)ccc2C1NC(=O)O[C@@H]1CN2CCC1CC2` (stereo partly drawn) [Example 183, (S)-quinuclidin-3-yl (5-(2-chloro-4-(trifluoromethyl)phenyl)-2,2-dimethyl-2,3-dihydro-1H-inden-1-yl)carbamate], 18.6 nM.
Under `COc1ccc(-c2ccc3c(c2)CC(C)(C)C3NC(=O)O[C@@H]2CN3CCC2CC3)c(OC)n1` (stereo partly drawn) [Example 184, (S)-quinuclidin-3-yl (5-(2,6-dimethoxypyridin-3-yl)-2,2-dimethyl-2,3-dihydro-1H-inden-1-yl)carbamate] stands 40 nM; under `CC1(C)Cc2cc(-c3ccc(OCC4CC4)nc3)ccc2C1NC(=O)O[C@@H]1CN2CCC1CC2` (stereo partly drawn) [Example 185, (S)-quinuclidin-3-yl (5-(6-(cyclopropylmethoxy)pyridin-3-yl)-2,2-dimethyl-2,3-dihydro-1H-inden-1-yl)carbamate], 11.1 nM.
The result for `CC1(C)Cc2cc(-c3cc4ccccc4s3)ccc2C1NC(=O)O[C@@H]1CN2CCC1CC2` (stereo partly drawn) [Example 186, (S)-quinuclidin-3-yl (5-(benzo[b]thiophen-2-yl)-2,2-dimethyl-2,3-dihydro-1H-inden-1-yl)carbamate] reads 82.6 nM; that for `CC(C)(C)Oc1cc(-c2ccc3c(c2)CC(C)(C)C3NC(=O)O[C@@H]2CN3CCC2CC3)ccn1` (stereo partly drawn) [Example 187, (S)-quinuclidin-3-yl (5-(2-(tert-butoxy)pyridin-4-yl)-2,2-dimethyl-2,3-dihydro-1H-inden-1-yl)carbamate], 31.7 nM; that for `COc1ncc(-c2ccc3c(c2)CC(C)(C)C3NC(=O)O[C@@H]2CN3CCC2CC3)cc1C(F)(F)F` (stereo partly drawn) [Example 188, (S)-quinuclidin-3-yl (5-(6-methoxy-5-(trifluoromethyl)pyridin-3-yl)-2,2-dimethyl-2,3-dihydro-1H-inden-1-yl)carbamate], 46.2 nM.
With `COc1ccc2cc(-c3ccc4c(c3)CC(C)(C)C4NC(=O)O[C@@H]3CN4CCC3CC4)ccc2c1` (stereo partly drawn) [Example 189, (S)-quinuclidin-3-yl (5-(6-methoxynaphthalen-2-yl)-2,2-dimethyl-2,3-dihydro-1H-inden-1-yl)carbamate], the IC50 worked out at 23 nM.
Turning to `CC1(C)Cc2cc(-c3cccc(-c4ccccc4)c3)ccc2C1NC(=O)O[C@@H]1CN2CCC1CC2` (stereo partly drawn) [Example 190, (S)-quinuclidin-3-yl (5-([1,1′-biphenyl]-3-yl)-2,2-dimethyl-2,3-dihydro-1H-inden-1-yl)carbamate], the IC50 was 13.3 nM.
Consider `CC1(C)Cc2cc(-c3ccc4nccnc4c3)ccc2C1NC(=O)O[C@@H]1CN2CCC1CC2` (stereo partly drawn) [Example 191, (S)-quinuclidin-3-yl (2,2-dimethyl-5-(quinoxalin-6-yl)-2,3-dihydro-1H-inden-1-yl)carbamate], for which it took 123 nM to reach half-maximal inhibition (IC50).
The result for `Cc1cc(C)cc(-c2ccc3c(c2)CC(C)(C)C3NC(=O)O[C@@H]2CN3CCC2CC3)c1` (stereo partly drawn) [Example 192, (S)-quinuclidin-3-yl (5-(3,5-dimethylphenyl)-2,2-dimethyl-2,3-dihydro-1H-inden-1-yl)carbamate] reads 25.8 nM.
The result for `CC1(C)Cc2cc(-c3ccco3)ccc2C1NC(=O)O[C@@H]1CN2CCC1CC2` (stereo partly drawn) [Example 193, (S)-quinuclidin-3-yl (5-(furan-2-yl)-2,2-dimethyl-2,3-dihydro-1H-inden-1-yl)carbamate] reads 15.3 nM; that for `Cc1cc(-c2ccc3c(c2)CC(C)(C)C3NC(=O)O[C@@H]2CN3CCC2CC3)cc(C)c1OC(C)C` (stereo partly drawn) [Example 194, (S)-quinuclidin-3-yl (5-(4-isopropoxy-3,5-dimethylphenyl)-2,2-dimethyl-2,3-dihydro-1H-inden-1-yl)carbamate], 47.6 nM; that for `COc1c(C)cc(-c2ccc3c(c2)CC(C)(C)C3NC(=O)O[C@@H]2CN3CCC2CC3)cc1C` (stereo partly drawn) [Example 195, (S)-quinuclidin-3-yl (5-(4-methoxy-3,5-dimethylphenyl)-2,2-dimethyl-2,3-dihydro-1H-inden-1-yl)carbamate], 36.1 nM.
`CC(C)Oc1ccc(-c2ccc3c(c2)CC(C)(C)C3NC(=O)O[C@@H]2CN3CCC2CC3)cn1` (stereo partly drawn) [Example 196, (S)-quinuclidin-3-yl (5-(6-isopropoxypyridin-3-yl)-2,2-dimethyl-2,3-dihydro-1H-inden-1-yl)carbamate] showed a concentration for half-maximal inhibition (IC50) of 23.2 nM.
Under `CC1(C)Cc2cc(-c3cccc(OCCF)c3)ccc2C1NC(=O)O[C@@H]1CN2CCC1CC2` (stereo partly drawn) [Example 197, (S)-quinuclidin-3-yl (5-(3-(2-fluoroethoxy)phenyl)-2,2-dimethyl-2,3-dihydro-1H-inden-1-yl)carbamate] stands 8.7 nM.
